From PubChem BioAssay (NCI)
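Results reflect a 48-hour exposure of cells in 96-well plates to compound at five concentrations. The concentration for 50% growth inhibition is given as GI50. TGI marks complete inhibition of growth.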

Tests used:
Experiment in all cases: NCI tumour cell line growth inhibition, 48 h
MCF7 breast = system: MCF7 breast
MALME-3M melanoma = system: MALME-3M melanoma
UACC-62 melanoma = system: UACC-62 melanoma
MDA-MB-435 = system: MDA-MB-435
M14 melanoma = system: M14 melanoma
PC-3 prostate = system: PC-3 prostate
SF-295 CNS = system: SF-295 CNS
SR leukemia = system: SR leukemia
HL-60(TB) leukemia = system: HL-60(TB) leukemia
COLO 205 colon = system: COLO 205 colon
SN12C renal = system: SN12C renal
NCI-H460 lung = system: NCI-H460 lung
HS 578T breast = system: HS 578T breast
U251 CNS = system: U251 CNS
NCI-H226 lung = system: NCI-H226 lung
UO-31 renal = system: UO-31 renal
SF-268 CNS = system: SF-268 CNS
OVCAR-8 ovarian = system: OVCAR-8 ovarian
SNB-75 CNS = system: SNB-75 CNS
DU-145 prostate = system: DU-145 prostate
KM12 colon = system: KM12 colon
UACC-257 melanoma = system: UACC-257 melanoma
SF-539 CNS = system: SF-539 CNS
SK-MEL-5 melanoma = system: SK-MEL-5 melanoma
A549 NSCLC = system: A549 NSCLC
HCT-15 colon = system: HCT-15 colon
HCC-2998 colon = system: HCC-2998 colon
OVCAR-5 ovarian = system: OVCAR-5 ovarian
RPMI-8226 leukemia = system: RPMI-8226 leukemia
SK-MEL-28 melanoma = system: SK-MEL-28 melanoma
SW-620 colon = system: SW-620 colon
SNB-19 CNS = system: SNB-19 CNS
HOP-92 NSCLC = system: HOP-92 NSCLC
A498 renal = system: A498 renal
NCI-H522 lung = system: NCI-H522 lung
MDA-MB-231 breast = system: MDA-MB-231 breast
EKVX NSCLC = system: EKVX NSCLC
OVCAR-4 ovarian = system: OVCAR-4 ovarian
TK-10 renal = system: TK-10 renal
CCRF-CEM leukemia = system: CCRF-CEM leukemia
RXF 393 renal = system: RXF 393 renal
ACHN renal = system: ACHN renal
T-47D breast = system: T-47D breast
K-562 leukemia = system: K-562 leukemia
786-0 renal = system: 786-0 renal
MOLT-4 leukemia = system: MOLT-4 leukemia
SK-OV-3 ovarian = system: SK-OV-3 ovarian
HOP-62 NSCLC = system: HOP-62 NSCLC
NCI-H23 lung = system: NCI-H23 lung
HCT-116 colon = system: HCT-116 colon
OVCAR-3 ovarian = system: OVCAR-3 ovarian
CAKI-1 renal = system: CAKI-1 renal
NCI/ADR-RES ovarian = system: NCI/ADR-RES ovarian
LOX IMVI melanoma = system: LOX IMVI melanoma

SMILES: COc1cc(NC(=O)NCc2ccco2)ccc1-c1ccc(NC(=O)NCc2ccco2)cc1OC
- GI50 (MCF7 breast): 1.49 µM
- TGI (MCF7 breast): 4.68 µM
- GI50 (MALME-3M melanoma): 1.65 µM
- TGI (MALME-3M melanoma): 5.56 µM
- GI50 (UACC-62 melanoma): 1.25 µM
- TGI (UACC-62 melanoma): 5.18 µM
- GI50 (MDA-MB-435): 4.14 µM
- TGI (MDA-MB-435): > 100 µM
- GI50 (M14 melanoma): 3.2 µM
- TGI (M14 melanoma): 38.2 µM
- GI50 (PC-3 prostate): 3.34 µM
- TGI (PC-3 prostate): 39.9 µM
- GI50 (SF-295 CNS): 1.25 µM
- TGI (SF-295 CNS): 14.4 µM
- GI50 (SR leukemia): 0.458 µM
- TGI (SR leukemia): > 100 µM
- GI50 (HL-60(TB) leukemia): > 100 µM
- TGI (HL-60(TB) leukemia): > 100 µM
- GI50 (COLO 205 colon): 3.1 µM
- TGI (COLO 205 colon): > 100 µM
- GI50 (SN12C renal): 3.17 µM
- TGI (SN12C renal): 23.3 µM
- GI50 (NCI-H460 lung): 0.526 µM
- TGI (NCI-H460 lung): > 100 µM
- GI50 (HS 578T breast): 1.51 µM
- TGI (HS 578T breast): 6.86 µM
- GI50 (U251 CNS): 0.957 µM
- TGI (U251 CNS): 4.3 µM
- GI50 (NCI-H226 lung): 1.46 µM
- TGI (NCI-H226 lung): 7.92 µM
- GI50 (UO-31 renal): 4.4 µM
- TGI (UO-31 renal): 55.8 µM
- GI50 (SF-268 CNS): 0.98 µM
- TGI (SF-268 CNS): 13.6 µM
- GI50 (OVCAR-8 ovarian): 1.88 µM
- TGI (OVCAR-8 ovarian): 11.7 µM
- GI50 (SNB-75 CNS): 1.02 µM
- TGI (SNB-75 CNS): 4 µM
- GI50 (DU-145 prostate): 3.01 µM
- TGI (DU-145 prostate): > 100 µM
- GI50 (KM12 colon): 1.82 µM
- TGI (KM12 colon): > 100 µM
- GI50 (UACC-257 melanoma): 2.72 µM
- TGI (UACC-257 melanoma): > 100 µM
- GI50 (SF-539 CNS): 0.663 µM
- TGI (SF-539 CNS): 2.62 µM
- GI50 (SK-MEL-5 melanoma): 0.93 µM
- TGI (SK-MEL-5 melanoma): 21.4 µM
- GI50 (A549 NSCLC): 1.74 µM
- TGI (A549 NSCLC): 28.3 µM
- GI50 (HCT-15 colon): 0.398 µM
- TGI (HCT-15 colon): > 100 µM
- GI50 (HCC-2998 colon): 7.97 µM
- TGI (HCC-2998 colon): > 100 µM
- GI50 (OVCAR-5 ovarian): 19.5 µM
- TGI (OVCAR-5 ovarian): > 100 µM
- GI50 (RPMI-8226 leukemia): > 100 µM
- TGI (RPMI-8226 leukemia): > 100 µM
- GI50 (SK-MEL-28 melanoma): 1.5 µM
- TGI (SK-MEL-28 melanoma): 5.33 µM
- GI50 (SW-620 colon): 6.15 µM
- TGI (SW-620 colon): > 100 µM
- GI50 (SNB-19 CNS): 3.22 µM
- TGI (SNB-19 CNS): 17.2 µM
- GI50 (HOP-92 NSCLC): 2.67 µM
- TGI (HOP-92 NSCLC): 7.76 µM
- GI50 (A498 renal): 1.72 µM
- TGI (A498 renal): 8.25 µM
- GI50 (NCI-H522 lung): 2 µM
- TGI (NCI-H522 lung): 5.33 µM
- GI50 (MDA-MB-231 breast): 1.41 µM
- TGI (MDA-MB-231 breast): 3.98 µM
- GI50 (EKVX NSCLC): 3.26 µM
- TGI (EKVX NSCLC): 31 µM
- GI50 (OVCAR-4 ovarian): 1.47 µM
- TGI (OVCAR-4 ovarian): 3.71 µM
- GI50 (TK-10 renal): 1.01 µM
- TGI (TK-10 renal): 9.87 µM
- GI50 (CCRF-CEM leukemia): 16.8 µM
- TGI (CCRF-CEM leukemia): > 100 µM
- GI50 (RXF 393 renal): 1.88 µM
- TGI (RXF 393 renal): 6.22 µM
- GI50 (ACHN renal): 2.84 µM
- TGI (ACHN renal): > 100 µM
- GI50 (T-47D breast): 2.38 µM
- TGI (T-47D breast): > 100 µM
- GI50 (K-562 leukemia): 0.773 µM
- TGI (K-562 leukemia): > 100 µM
- GI50 (786-0 renal): 2.35 µM
- TGI (786-0 renal): 11.4 µM
- GI50 (MOLT-4 leukemia): 20.3 µM
- TGI (MOLT-4 leukemia): > 100 µM
- GI50 (SK-OV-3 ovarian): 2.49 µM
- TGI (SK-OV-3 ovarian): 19.7 µM
- GI50 (HOP-62 NSCLC): 1.94 µM
- TGI (HOP-62 NSCLC): 11.3 µM
- GI50 (NCI-H23 lung): 2.99 µM
- TGI (NCI-H23 lung): 11 µM
- GI50 (HCT-116 colon): 0.696 µM
- TGI (HCT-116 colon): > 100 µM
- GI50 (OVCAR-3 ovarian): 2.59 µM
- TGI (OVCAR-3 ovarian): 16.2 µM
- GI50 (CAKI-1 renal): 10.1 µM
- TGI (CAKI-1 renal): > 100 µM
- GI50 (NCI/ADR-RES ovarian): > 100 µM
- TGI (NCI/ADR-RES ovarian): > 100 µM
- GI50 (LOX IMVI melanoma): 1.28 µM
- TGI (LOX IMVI melanoma): > 100 µM
